The text below walks through data of patent US12673946B2, “Pyrimidin-4(3H)-one derivatives as TRPV4 antagonists” (RaQualia Pharma Inc., priority 2020, dated 2026).

Bounds are passed on as bounds.

This assay deals with T1, human TRPV4 (Homo sapiens, UniProt Q9HBA0).
T1 construct: host or cells: tetracycline-inducible Flp-In T-REx 293 cells
As to the kind of experiment: Hypotonicity-induced Ca2+ influx (Fluo-4, FDSS). In kind it is cell-based. The procedure, abridged:
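Flp-In T-REx 293 cells with tetracycline-induced human TRPV4, loaded with Fluo-4 for 60 min at 25 °C. Compound added 5 min before hypotonic mannitol/CaCl2 solution. Ca2+ signal recorded for 4.5 min on FDSS.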

The mark [1] stands for this setting: Flp-In T-REx 293 cells expressing human TRPV4, examples listed under heading 'Human IC50<50 nM'.
The mark [2] stands for this setting: Flp-In T-REx 293 cells stably expressing human TRPV4, compounds listed by potency bin (<10 nM Tables 96-1/96-2, <3 nM Table 97).

T1 sequence (Q9HBA0 whole entry): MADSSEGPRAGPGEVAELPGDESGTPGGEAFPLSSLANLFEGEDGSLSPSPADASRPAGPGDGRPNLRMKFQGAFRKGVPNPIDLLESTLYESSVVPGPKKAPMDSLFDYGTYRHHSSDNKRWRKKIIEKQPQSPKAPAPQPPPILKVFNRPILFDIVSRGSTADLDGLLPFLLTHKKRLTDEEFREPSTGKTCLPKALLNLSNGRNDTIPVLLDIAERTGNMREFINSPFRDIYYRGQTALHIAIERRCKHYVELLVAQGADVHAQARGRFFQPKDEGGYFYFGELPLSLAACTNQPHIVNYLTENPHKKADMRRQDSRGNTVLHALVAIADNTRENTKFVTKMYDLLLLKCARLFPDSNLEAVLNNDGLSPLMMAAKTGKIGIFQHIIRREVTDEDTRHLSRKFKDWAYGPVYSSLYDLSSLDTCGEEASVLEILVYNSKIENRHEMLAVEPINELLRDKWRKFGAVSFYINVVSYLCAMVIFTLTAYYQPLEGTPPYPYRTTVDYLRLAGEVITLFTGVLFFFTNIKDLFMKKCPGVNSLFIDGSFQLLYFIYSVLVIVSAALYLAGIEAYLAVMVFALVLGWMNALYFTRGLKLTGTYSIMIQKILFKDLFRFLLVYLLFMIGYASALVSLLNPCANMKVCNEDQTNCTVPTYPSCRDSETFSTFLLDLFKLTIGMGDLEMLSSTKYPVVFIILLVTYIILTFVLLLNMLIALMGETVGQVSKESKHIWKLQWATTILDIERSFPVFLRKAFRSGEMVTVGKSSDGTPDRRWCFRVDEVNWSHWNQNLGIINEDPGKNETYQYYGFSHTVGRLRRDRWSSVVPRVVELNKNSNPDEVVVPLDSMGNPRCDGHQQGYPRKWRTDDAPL

The IC50 is the concentration at which inhibition is half-maximal. For `O=C(N1CCc2nc(C3(c4cncc(-c5ccccc5)c4)CC3)[nH]c(=O)c2C1)C(F)(F)c1cccc(Cl)c1` [22-5], the concentration for half-maximal inhibition (IC50) by setting is: under setting [1], under 50 nM; under setting [2], under 10 nM. For `O=C(N1CCc2nc(C3(c4cncc(-c5ccccc5)c4)CC3)[nH]c(=O)c2C1)C(F)(F)c1cccc(C(F)(F)F)c1` [22-6] the same measures were under 50 nM and under 10 nM. On to `O=C(N1CCCc2nc(C3(c4cncc(-c5ccccc5)c4)CC3)[nH]c(=O)c2C1)C(F)(F)c1cccc(Cl)c1F` [22-7], for which the IC50 was under 50 nM under setting [1] and under 3 nM under setting [2]. For `CC(C)c1cncc(C2(c3nc4c(c(=O)[nH]3)CN(C(=O)C(F)(F)c3cccc(Cl)c3F)CCC4)CC2)c1` [22-8] the same measures were under 50 nM and under 10 nM. As for `CC(C)c1cncc(C2(c3nc4c(c(=O)[nH]3)CN(C(=O)C(F)(F)c3cccc(C(F)(F)F)c3)CC4)CC2)c1` [22-9], the half-maximal inhibitory concentration (IC50) reads like this: under setting [1], under 50 nM; under setting [2], under 10 nM. On to `CC(C)c1cncc(C2(c3nc4c(c(=O)[nH]3)CN(C(=O)C(F)(F)c3cccc(Cl)c3)CC4)CC2)c1` [22-10], for which the IC50 under setting [1] was under 50 nM. Compound `O=C([C@H](O)c1cccc(Cl)c1)N1CCc2nc(C3(c4cc(C5CCC(F)(F)CC5)cs4)CC3)[nH]c(=O)c2C1` [23-1, (R)-6-(2-(3-chlorophenyl)-2-hydroxyacetyl)-2-(1-(4-(4,4-difluorocyclohexyl)thiophen-2-yl)cyclopropyl)-5,6,7,8-tetrahydropyrido[4,3-d]pyrimidin-4(3H)-one] yielded a half-maximal inhibitory concentration (IC50) under setting [1] of under 50 nM and an IC50 under setting [2] of under 10 nM. The matching figures for `O=C([C@H](O)c1cccc(Cl)c1)N1CCc2nc(C3(c4cc(C5CCCC5)cs4)CC3)[nH]c(=O)c2C1` [23-2]: under 50 nM and under 10 nM. As for `O=C([C@H](O)c1cccc(Cl)c1)N1CCc2nc(C3(c4cccc(C5CCCC5)c4)CC3)[nH]c(=O)c2C1` [24-1], the 50% inhibitory concentration (IC50) reads like this: under setting [1], under 50 nM; under setting [2], under 10 nM.

As for `O=C([C@H](O)c1cccc(Cl)c1)N1CCc2nc(C3(c4cncc(C5CCCC5)c4)CC3)[nH]c(=O)c2C1` [25-1], the half-inhibitory concentration (IC50) runs as follows: under setting [1], under 50 nM; under setting [2], under 3 nM. The matching figures for `O=C([C@H](O)c1cccc(Cl)c1)N1CCc2nc(C3(c4cncc(C5CCCCC5)c4)CC3)[nH]c(=O)c2C1` [25-2]: under 50 nM and under 10 nM. The matching figures for `CC(C)c1cncc(C2(c3nc4c(c(=O)[nH]3)CN(C(=O)[C@H](O)c3cccc(Cl)c3)CC4)CC2)c1` [25-3]: under 50 nM and under 10 nM. For the compound `O=C([C@H](O)c1cccc(Cl)c1)N1CCc2nc(C3(c4cncc(C5CCC(F)(F)CC5)c4)CC3)[nH]c(=O)c2C1` [25-4], the IC50 is, setting by setting: under setting [1], under 50 nM; under setting [2], under 10 nM. For `O=C([C@H](O)c1cccc(C(F)(F)F)c1)N1CCc2nc(C3(c4cc(C5CCC(F)(F)CC5)cs4)CC3)[nH]c(=O)c2C1` [26-1] the same measures were under 50 nM and under 10 nM. On to `O=C([C@H](O)c1cccc(C(F)(F)F)c1)N1CCc2nc(C3(c4cc(C5CCOCC5)cs4)CC3)[nH]c(=O)c2C1` [26-2], for which the concentration for half-maximal inhibition (IC50) under setting [1] was under 50 nM. Turning to `CC(C)c1cccc(C2(c3nc4c(c(=O)[nH]3)CN(C(=O)[C@H](O)c3cccc(C(F)(F)F)c3)CC4)CC2)c1` [27-1], the IC50 was under 50 nM under setting [1] and under 10 nM under setting [2]. Compound `O=C([C@H](O)c1cccc(C(F)(F)F)c1)N1CCc2nc(C3(c4cccc(C5CCCC5)c4)CC3)[nH]c(=O)c2C1` [27-2] showed an IC50 under setting [1] of under 50 nM and an IC50 under setting [2] of under 10 nM. For `O=C([C@H](O)c1cccc(C(F)(F)F)c1)N1CCc2nc(C3(c4cccc(C5CCOCC5)c4)CC3)[nH]c(=O)c2C1` [27-3] the same measures were under 50 nM and under 10 nM. With `O=C(Cc1cccc(-c2cccc(C(F)(F)F)c2)c1)N1CCc2nc(C3(c4cccc(C5CCCCC5)c4)CC3)[nH]c(=O)c2C1` [27-4], the IC50 under setting [1] was under 50 nM and the IC50 under setting [2] was under 10 nM. On to `CC(C)c1cccc(C2(c3nc4c(c(=O)[nH]3)CN(C(=O)Cc3cccc(-c5cccc(Cl)c5)c3)CC4)CC2)c1` [27-5], for which, under setting [1], the IC50 was under 50 nM. Take `CC(C)c1cccc(C2(c3nc4c(c(=O)[nH]3)CN(C(=O)Cc3cccc(-c5cccc(C(F)(F)F)c5)c3)CC4)CC2)c1` [27-6]: the IC50 is under 50 nM under setting [1] and under 10 nM under setting [2]. The matching figures for `O=C(Cc1cccc(-c2cccc(Cl)c2)c1)N1CCc2nc(C3(c4cccc(C5CCCCC5)c4)CC3)[nH]c(=O)c2C1` [27-7]: under 50 nM and under 10 nM. For `O=C([C@H](O)c1cccc(C(F)(F)F)c1)N1CCc2nc(C3(c4cncc(C5CCCC5)c4)CC3)[nH]c(=O)c2C1` [28-1] the same measures were under 50 nM and under 3 nM. Turning to `O=C([C@H](O)c1cccc(C(F)(F)F)c1)N1CCc2nc(C3(c4cncc(C5CCCCC5)c4)CC3)[nH]c(=O)c2C1` [28-2], the concentration for half-maximal inhibition (IC50) was under 50 nM under setting [1] and under 10 nM under setting [2].

In the case of `CC(C)c1cncc(C2(c3nc4c(c(=O)[nH]3)CN(C(=O)[C@H](O)c3cccc(C(F)(F)F)c3)CC4)CC2)c1` [28-3], the half-inhibitory concentration (IC50) by setting is: under setting [1], under 50 nM; under setting [2], under 10 nM. The matching figures for `O=C([C@H](O)c1cccc(C(F)(F)F)c1)N1CCc2nc(C3(c4cncc(C5CCC(F)(F)CC5)c4)CC3)[nH]c(=O)c2C1` [28-4]: under 50 nM and under 10 nM. Under setting [1], `O=C([C@H](O)c1cccc(C(F)(F)F)c1)N1CCc2nc(C3(c4cncc(C5CCOCC5)c4)CC3)[nH]c(=O)c2C1` [28-5] displayed an IC50 of under 50 nM. Consider `CC(C)c1cccc(C2(c3nc4c(c(=O)[nH]3)CN(C(=O)[C@H](O)c3cccc(Cl)c3)CCC4)CC2)c1` [29-1], for which the IC50 under setting [1] is under 50 nM and the IC50 under setting [2] was under 10 nM. On to `O=C([C@H](O)c1cccc(Cl)c1)N1CCCc2nc(C3(c4cccc(C5CCCCC5)c4)CC3)[nH]c(=O)c2C1` [29-2, (R)-6-(2-(3-chlorophenyl)-2-hydroxyacetyl)-2-(1-(3-cyclohexylphenyl)cyclopropyl)-3,5,6,7,8,9-hexahydro-4H-pyrimido[5,4-c]azepin-4-one], for which the 50% inhibitory concentration (IC50) reads like this: under setting [1], under 50 nM; under setting [2], under 3 nM. For `O=C([C@H](O)c1cccc(Cl)c1)N1CCCc2nc(C3(c4cccc(C5CCCC5)c4)CC3)[nH]c(=O)c2C1` [29-3] the same measures were under 50 nM and under 3 nM. The matching figures for `O=C([C@H](O)c1cccc(Cl)c1)N1CCCc2nc(C3(c4cccc(C5CCC(F)(F)CC5)c4)CC3)[nH]c(=O)c2C1` [29-4]: under 50 nM and under 3 nM. The matching figures for `O=C([C@H](O)c1cccc(C(F)(F)F)c1)N1CCCc2nc(C3(c4cc(C5CCCC5)cs4)CC3)[nH]c(=O)c2C1` [30-1]: under 50 nM and under 3 nM. Turning to `CCc1csc(C2(c3nc4c(c(=O)[nH]3)CN(C(=O)[C@H](O)c3cccc(C(F)(F)F)c3)CCC4)CC2)c1` [30-2], the 50% inhibitory concentration (IC50) is under 50 nM under setting [1] and under 3 nM under setting [2]. Take `O=C([C@H](O)c1cccc(C(F)(F)F)c1)N1CCCc2nc(C3(c4cc(C5CCC(F)(F)CC5)cs4)CC3)[nH]c(=O)c2C1` [30-3]: the half-maximal inhibitory concentration (IC50) runs as follows: under setting [1], under 50 nM; under setting [2], under 3 nM. The matching figures for `CC(C)(C)CCc1csc(C2(c3nc4c(c(=O)[nH]3)CN(C(=O)[C@H](O)c3cccc(C(F)(F)F)c3)CCC4)CC2)c1` [30-4]: under 50 nM and under 10 nM. For `O=C([C@H](O)c1cccc(C(F)(F)F)c1)N1CCCc2nc(C3(c4cc(CCC56CC7CC(CC(C7)C5)C6)cs4)CC3)[nH]c(=O)c2C1` [30-5] the same measures were under 50 nM and under 10 nM. For `O=C([C@H](O)c1cccc(C(F)(F)F)c1)N1CCCc2nc(C3(c4cc(CCC5CCOCC5)cs4)CC3)[nH]c(=O)c2C1` [30-6] the same measures were under 50 nM and under 10 nM. As for `O=C([C@H](O)c1cccc(C(F)(F)F)c1)N1CCCc2nc(C3(c4cc(C5CCOCC5)cs4)CC3)[nH]c(=O)c2C1` [30-7], the IC50 under setting [1] is under 50 nM and the half-maximal inhibitory concentration (IC50) under setting [2] was under 10 nM. The matching figures for `O=C([C@H](O)c1cccc(C(F)(F)F)c1)N1CCCc2nc(C3(c4cc(CCC5CC5)cs4)CC3)[nH]c(=O)c2C1` [30-8]: under 50 nM and under 10 nM. The matching figures for `O=C([C@H](O)c1cccc(C(F)(F)F)c1)N1CCCc2nc(C3(c4cc(CCc5ccccc5)cs4)CC3)[nH]c(=O)c2C1` [30-9]: under 50 nM and under 10 nM. The matching figures for `COCCCc1csc(C2(c3nc4c(c(=O)[nH]3)CN(C(=O)[C@H](O)c3cccc(C(F)(F)F)c3)CCC4)CC2)c1` [30-10]: under 50 nM and under 10 nM.

On to `O=C([C@H](O)c1cccc(C(F)(F)F)c1)N1CCCc2nc(C3(c4cc(CCC5COC5)cs4)CC3)[nH]c(=O)c2C1` [30-11], for which the IC50 reads like this: under setting [1], under 50 nM; under setting [2], under 10 nM.

In turn, `CC(C)(O)CCc1csc(C2(c3nc4c(c(=O)[nH]3)CN(C(=O)[C@H](O)c3cccc(C(F)(F)F)c3)CCC4)CC2)c1` [30-12] had an IC50 under setting [1] of under 50 nM. Take `CC(=O)N1CCC(c2csc(C3(c4nc5c(c(=O)[nH]4)CN(C(=O)[C@H](O)c4cccc(C(F)(F)F)c4)CCC5)CC3)c2)CC1` [30-13]: the IC50 under setting [1] was under 50 nM.

`O=C([C@H](O)c1cccc(C(F)(F)F)c1)N1CCCc2nc(C3(c4cc(CCC5(O)CCCCC5)cs4)CC3)[nH]c(=O)c2C1` [30-14]: the IC50 is under 50 nM under setting [1] and under 10 nM under setting [2].

As to `O=C([C@H](O)c1cccc(C(F)(F)F)c1)N1CCCc2nc(C3(c4cccc(C5CCN(CC(F)(F)F)CC5)c4)CC3)[nH]c(=O)c2C1` [31-1], the IC50 runs as follows: under setting [1], under 50 nM; under setting [2], under 3 nM. For `O=C([C@H](O)c1cccc(C(F)(F)F)c1)N1CCCc2nc(C3(c4cccc(C5CCC(F)(F)CC5)c4)CC3)[nH]c(=O)c2C1` [31-2] the same measures were under 50 nM and under 3 nM.
